Source: article PMC4439283 (The FEBS journal, 2015)
Like-named read-outs stand apart in the source and are kept apart here.

Key:
[1] = system: X4 viruses; settings: ref [16]; cited from earlier work
[2] = system: X4 viruses; settings: ref [15]; cited from earlier work
[3] = system: X4 strain LAV; settings: ref [15]; cited from earlier work
[4] = system: R5 viruses; settings: ref [15], cited from earlier work
[5] = system: R5 viruses; settings: ref [16]; cited from earlier work
[6] = in solution; ref [16]; cited from earlier work
[7] = molecular target: biotinylated ECL2S peptide (Biotin-GSGS-CCR5 R168-K197 C178S-GSGS) (human); assay: SPR
[8] = molecular target: biotinylated ECL2S peptide (Biotin-GSGS-CCR5 R168-K197 C178S-GSGS) (human); assay: SPR; remark: listed apart in the source
[9] = molecular target: biotinylated ECL2S peptide (Biotin-GSGS-CCR5 R168-K197 C178S-GSGS) (human); assay: SPR; remark: listed apart in the source

Substance	neutralization concentration range [1]	fusion inhibition, X4 viruses [2]	neutralization of X4 strain LAV [3]	strain specificity ([4]; R5 strains)	50% inhibition concentration, fusion ([4]; R5 virus Ba-L)	fusion inhibition, R5 viruses ([4]; fusion of R5 viruses with target cells)	neutralization concentration range [5]	conformation of free peptide [6]	Kd [7]	Kd [8]	Kd [9]
PL2: CCR5 ECL2 peptide, residues 168-191 (RSQKEGLHYTCSSHFPYSQYQFWK; UniProt P51681 168-191, looked up, fragment)	~100 µM	did not inhibit fusion of X4 viruses	None of these peptides neutralized the X4 strain LAV	specific for R5 strains	20 µg/mL	inhibited the fusion of R5 viruses with target cells	~100 µM	unstructured in solution			
^mutgp120_(core) (HIV-1 JR-FL gp120 88-492, ΔV1/V2, V3 replaced by GAG, non-aggregating mutant) (domain or fragment)									18 µM		
^mutgp120_(core)/CD4M33 complex									6 µM	7 µM	7.5 µM
